From ChEMBL document CHEMBL4052693, “1,2,4-Triazole and 1,3,4-oxadiazole analogues: Synthesis, MO studies, in silico molecular docking studies, antimalarial as DHFR inhibitor and antimicrobial activities” (Bioorg Med Chem, 2017)
≈ marks a conversion by molar mass, not a printed value. Calls of active or inactive are those of the source. The rule behind the calls is not given here.

Experiments:
[1] = system: Streptococcus pyogenes; assay: Antimicrobial activity against Streptococcus pyogenes MTCC 442 incubated for overnight by broth micro dilution method; format: functional
[2] = system: Staphylococcus aureus; assay: Antimicrobial activity against Staphylococcus aureus MTCC 96 incubated for overnight by broth micro dilution method; format: functional
[3] = system: Escherichia coli; assay: Antimicrobial activity against Escherichia coli MTCC 443 incubated for overnight by broth micro dilution method; format: functional
[4] = system: Pseudomonas aeruginosa; assay: Antimicrobial activity against Pseudomonas aeruginosa MTCC 1688 incubated for overnight by broth micro dilution method; format: functional
[5] = system: Candida albicans; assay: Antifungal activity against Candida albicans MTCC 227 incubated for overnight by broth micro dilution method; format: functional
[6] = system: Plasmodium falciparum; assay: Antimalarial activity against Plasmodium falciparum ring stage forms after 48 hrs; format: functional
[7] = Cytotoxicity against Schizosaccharomyces pombe Var. Paul Linder 3360 assessed as cell viability at 2 ug/ml after 16 to 18 hrs by trypan blue staining-based compound microscopic analysis (reference value: 93.67 +/- 1.53%); conditions: Schizosaccharomyces pombe Var. Paul Linder 3360 cells, read-out: Activity
[8] = Cytotoxicity against Schizosaccharomyces pombe Var. Paul Linder 3360 assessed as cell viability at 4 ug/ml after 16 to 18 hrs by trypan blue staining-based compound microscopic analysis (reference value: 93.67 +/- 1.53%); conditions: Schizosaccharomyces pombe Var. Paul Linder 3360 cells, read-out: Activity
[9] = Cytotoxicity against Schizosaccharomyces pombe Var. Paul Linder 3360 assessed as cell viability at 6 ug/ml after 16 to 18 hrs by trypan blue staining-based compound microscopic analysis (reference value: 93.67 +/- 1.53%); conditions: Schizosaccharomyces pombe Var. Paul Linder 3360 cells, read-out: Activity
[10] = Cytotoxicity against Schizosaccharomyces pombe Var. Paul Linder 3360 assessed as cell viability at 8 ug/ml after 16 to 18 hrs by trypan blue staining-based compound microscopic analysis (reference value: 93.67 +/- 1.53%); conditions: Schizosaccharomyces pombe Var. Paul Linder 3360 cells, read-out: Activity
[11] = Cytotoxicity against Schizosaccharomyces pombe Var. Paul Linder 3360 assessed as cell viability at 10 ug/ml after 16 to 18 hrs by trypan blue staining-based compound microscopic analysis (reference value: 93.67 +/- 1.53%); conditions: Schizosaccharomyces pombe Var. Paul Linder 3360 cells, read-out: Activity
[12] = system: Schizosaccharomyces pombe; assay: Genotoxicity in Schizosaccharomyces pombe Var. Paul Linder 3360 assessed as DNA damage at 2 to 10 ug/ml after 17 to 18 hrs by agarose gel electrophoresis analysis
[13] = system: Aspergillus clavatus; conditions: MTCC 1323
[14] = target: T1, Dihydrofolate reductase (Bos taurus, UniProt P00376); assay: Inhibition of bovine liver DHFR pre-incubated 2 mins before dihydrofolic acid substrate addition and measured over 10 mins in presence of NADPH
T1 sequence (P00376 whole entry): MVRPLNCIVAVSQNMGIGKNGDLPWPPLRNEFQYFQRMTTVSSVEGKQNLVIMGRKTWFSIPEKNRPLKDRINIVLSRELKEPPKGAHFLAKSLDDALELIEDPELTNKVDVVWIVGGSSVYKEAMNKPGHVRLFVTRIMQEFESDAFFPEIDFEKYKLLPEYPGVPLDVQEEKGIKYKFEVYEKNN

[15] = system: Aspergillus clavatus; assay: Antifungal activity against Aspergillus clavatus MTCC 1323 incubated for overnight by broth micro dilution method; format: functional

With `O=C(O)c1cn(C2CC2)c2cc(N3CCNCC3)c(F)cc2c1=O` [CIPROFLOXACIN] the MIC99 [1] was 151 µM (≈ 50 µg/mL), the MIC99 [2] was 151 µM (≈ 50 µg/mL) and the MIC99 [3] was 75 µM (≈ 24.9 µg/mL). For the same compound, the MIC99 [4] was 75 µM (≈ 24.9 µg/mL).
For `Sc1nnc(-c2ccc(/N=C/c3cccs3)cc2)o1`, the MIC99 [1] was 348 µM (≈ 100 µg/mL), the MIC99 [2] was 697 µM (≈ 200 µg/mL) and the MIC99 [3] was 436 µM (≈ 125 µg/mL). For the same compound, the MIC99 [4] was 871 µM (≈ 250 µg/mL), the MIC99 [5] was “inactive” and the IC50 [6] was 802 nM. It also gave a viability at 2 ug/ml [7] of 74.3%, a viability at 4 ug/ml [8] of 70.7% and a viability at 6 ug/ml [9] of 66.3%. For the same compound, the viability at 8 ug/ml [10] was 61%, the viability at 10 ug/ml [11] was 52.7% and the Activity [12] was “Toxic”. For the same compound, the MIC99 [13] was “inactive”.
Compound `CC1(C)S[C@@H]2[C@H](NC(=O)[C@H](N)c3ccccc3)C(=O)N2[C@H]1C(=O)O` [AMPICILLIN] has an MIC99 [1] of 286 µM (≈ 99.9 µg/mL), an MIC99 [2] of 716 µM (≈ 250 µg/mL) and an MIC99 [3] of 286 µM (≈ 99.9 µg/mL). For the same compound, the MIC99 [4] was 286 µM (≈ 99.9 µg/mL).
`Sc1nnc(-c2ccc(/N=C/c3ccc(Cl)cc3)cc2)n1/N=C/c1ccc(Cl)cc1` showed an MIC99 [1] of 222 µM (≈ 100 µg/mL), an MIC99 [2] of 554 µM (≈ 251 µg/mL) and an MIC99 [3] of 554 µM (≈ 251 µg/mL). For the same compound, the MIC99 [4] was 222 µM (≈ 100 µg/mL), the MIC99 [5] was “inactive” and the IC50 [6] was 230 nM. The viability at 2 ug/ml [7] was 83.3%, the viability at 4 ug/ml [8] was 72.3% and the viability at 6 ug/ml [9] was 62.3%. The viability at 8 ug/ml [10] was 55.7%, the viability at 10 ug/ml [11] was 47% and the Activity [12] was “Toxic”. The IC50 [14] was 34.9 nM and the MIC99 [13] was “inactive”.
For `Oc1ccc(/C=N/c2ccc(-c3nnc(S)o3)cc2)cc1`, the MIC99 [1] was 673 µM (≈ 200 µg/mL), the MIC99 [2] was 673 µM (≈ 200 µg/mL) and the MIC99 [3] was 421 µM (≈ 125 µg/mL). The MIC99 [4] was 842 µM (≈ 250 µg/mL), the MIC99 [5] was “inactive” and the IC50 [6] was 822 nM. It also gave a viability at 2 ug/ml [7] of 82.3%, a viability at 4 ug/ml [8] of 78.3% and a viability at 6 ug/ml [9] of 72%. The viability at 8 ug/ml [10] was 67%, the viability at 10 ug/ml [11] was 45.3% and the Activity [12] was “Toxic”. The MIC99 [13] was “inactive”.
Work on `Nc1ccc(-c2nnc(S)n2N)cc1` yielded an MIC99 [1] of 1210 µM (≈ 250 µg/mL), an MIC99 [2] of 1210 µM (≈ 250 µg/mL) and an MIC99 [3] of 1210 µM (≈ 250 µg/mL). The MIC99 [4] was 966 µM (≈ 200 µg/mL), the MIC99 [5] was 4830 µM (≈ 1000 µg/mL) and the MIC99 [15] was 2420 µM (≈ 501 µg/mL). It also gave an IC50 [6] of 960 nM, a viability at 2 ug/ml [7] of 91.3% and a viability at 4 ug/ml [8] of 85.7%. It also gave a viability at 6 ug/ml [9] of 82%, a viability at 8 ug/ml [10] of 75.7% and a viability at 10 ug/ml [11] of 67%. The Activity [12] was “Toxic”.
NYSTATIN showed an MIC99 [5] of 108 µM and an MIC99 [13] of 0.108 mM.
With `Sc1nnc(-c2ccc(/N=C/c3ccc(Cl)cc3)cc2)o1` the MIC99 [1] was 397 µM (≈ 125 µg/mL), the MIC99 [2] was 794 µM (≈ 251 µg/mL) and the MIC99 [3] was 635 µM (≈ 201 µg/mL). The MIC99 [4] was 397 µM (≈ 125 µg/mL), the MIC99 [5] was “inactive” and the IC50 [6] was 301 nM. The viability at 2 ug/ml [7] was 81.3%, the viability at 4 ug/ml [8] was 73.3% and the viability at 6 ug/ml [9] was 64.7%. The viability at 8 ug/ml [10] was 54.7%, the viability at 10 ug/ml [11] was 47% and the Activity [12] was “Toxic”. For the same compound, the IC50 [14] was 45 nM and the MIC99 [13] was “inactive”.
In the case of `O=C(N[C@H](CO)[C@H](O)c1ccc([N+](=O)[O-])cc1)C(Cl)Cl` [CHLORAMPHENICOL], the MIC99 [1] is reported as 155 µM (≈ 50.1 µg/mL), the MIC99 [2] is reported as 155 µM (≈ 50.1 µg/mL) and the MIC99 [3] is reported as 155 µM (≈ 50.1 µg/mL). It also gave an MIC99 [4] of 155 µM (≈ 50.1 µg/mL).
In the case of `CCn1cc(C(=O)O)c(=O)c2cc(F)c(N3CCNCC3)cc21` [NORFLOXACIN], the MIC99 [1] is reported as 31 µM (≈ 9.9 µg/mL), the MIC99 [2] is reported as 31 µM (≈ 9.9 µg/mL) and the MIC99 [3] is reported as 31 µM (≈ 9.9 µg/mL). For the same compound, the MIC99 [4] was 31 µM (≈ 9.9 µg/mL).
